In one test the test system is pancreatic NTX tumors. Put plainly: Chemoresistance of tumor cell subpopulations in mice bearing pancreatic NTX tumors.
For another test, the system named is colorectal NTX tumors. Description: Chemoresistance of tumor cell subpopulations in mice bearing colorectal NTX tumors. Format: in vivo. Particulars: 15 mg/kg twice weekly. The method, then:
To assess chemoresistance of tumor cell subpopulations, in vivo cohorts of mice bearing NTX colorectal tumors were randomized into two groups, such that the average tumor volume for each group was roughly equal. The groups were then treated twice weekly with either 15 mg/kg irinotecan or an equivalent volume of vehicle buffer. Tumor volumes and animal health were monitored and recorded twice weekly, a day prior to each injection.

Consider two molecules from patent publication US9778264B2, “Identification and enrichment of cell subpopulations” (STEM CENTRX, INC., priority 2010, dated 2017).

Protocol for pancreatic NTX tumors: Mice then received twice weekly intraperitoneal dosing of 15 mg/kg irinotecan or 25 mg/kg gemcitabine, respectively, for a period of approximately 20 days before they were euthanized for tumor resection and cellular analysis.
Harvested tumors were then dissociated and constituent single cells were analyzed by flow cytometry.

`Nc1ccn([C@@H]2O[C@H](CO)[C@@H](O)C2(F)F)c(=O)n1` [gemcitabine]: the “tumor volume (growth of treated tumors)” value with pancreatic NTX tumors (25 mg/kg intraperitoneal twice weekly, vs vehicle-treated tumors that continued to grow unabated, FIG. 25A) is listed as “decreased in volume”. Further, the “residual tumor cell marker phenotype (CD46 expression)” value with pancreatic NTX tumors (25 mg/kg twice weekly, flow cytometry of harvested tumors, vehicle vs treated, FIG. 25B) is reported as “enrichment for tumor cells expressing markers indicative of TIC”.
As for `CCc1c2c(nc3ccc(OC(=O)N4CCC(N5CCCCC5)CC4)cc13)-c1cc3c(c(=O)n1C2)COC(=O)[C@]3(O)CC` [irinotecan], the “frequency of cells with TPC phenotype (CD46hi CD324+ CD66c-) among live human cells, treated vs saline-treated” value with colorectal NTX tumors (flow cytometry of harvested tumors, FIGS. 24B and 24C) is “more than 2.5 fold”. Besides, the “CD66c phenotype of residual cells among the CD46hi CD324+ population” value in the test with colorectal NTX tumors (flow cytometry, in vehicle-treated tumors most residual cells were CD66c+, FIG. 24D) is listed as “most residual cells were CD66c^−”.
